pEC50: −log10 of the molar value.
Tests used:
[1] = tested on: MCF7 cells; assay: BrdU incorporation ELISA in MCF7; type: cell-based; conditions: Homo sapiens, 3 DT
Protocol: Relative IC50/EC50 values were determined by curve fitting to a four parameter logistic equation: Y = bottom + ((top-bottom)/ (1+exp(HillSlope*(X – LnIC50)), where X is the natural log of dose/concentration, Y is response, decreasing as X increases, top and bottom are plateaus in the same units as Y, lnIC50 is the natural log of potency, in the same log units as X, and HillSlope measures the steepness of the curve. Data were plotted using GraphPad Prism.
After treatment, an ELISA for BrdU detection was performed (Roche, Cat. No. 11 669 915 001) following the vendor’s manual. Envision® (PerKinElmer) was used to measure the light emission of the samples and raw data were processed with Microsoft Excel and relative EC50 values were determined as described above. For normalization, the mean value obtained from cells treated with 2 µM […] doxorubicin (Sigma #D1515) was set as the minimum, and that obtained from treatment with the vehicle (0.2% DMSO) was set as the maximum.

[2] = tested on: ZR-75-1 xenograft tumors; assay: mRNA expression of cell cycle regulatory genes in ZR-75-1 xenograft tumors; type: in vivo, mouse; conditions: 50 or 75 mg/kg QDx5; Cyclin E, MCM7, CDKN2C, PTEN, AURA, CCNB1, FOXM1, RRM2, MKI67, Topo IIα
Protocol: page 4: or pHH3 facilitates quantification of the inhibition of #79654). The suspension was placed on the Qiashredder cell cycle progression since lower expression of these 2 columns (Qiagen #79654) and RNA was purified by biomarkers quantitatively correlates with the extent of following the protocol for the RNAeasy Mini Kit (Qiagen progression of cells through either S-phase (Topo IIα) or # 74104). Following the last wash, the purified RNA was M-phase (pHH3). The inhibition of CDK9 was assessed eluted using […] RNase-free water and collected in by measuring the inhibition of either MCL1 expression labeled DNase/RNase-free collection tubes. The quantity or phosphorylation of […] on the C-terminal domain of RNA was measured by spectral analysis using the repeat on RNA polymerase II (pCTD). The visualization Nanodrop Spectrophotometer (NanoDrop Products, of the signals corresponding to these biomarkers was Wilmington, DE, USA) and then placed in -80 degree […] achieved through development with the ECL SuperSignal freezer for analysis. The cDNA preparation was completed chemo-luminescence kit (Pierce) and image capture using as described in the included kit protocol using Superscript the Fuji LAS400 image capture instrument. […] Isolation and purification of RNA from tumors All samples, once quantitated, were delivered to […] […]

[3] = tested on: MCF7, MDA-MB-361 and EFM-19 cells; assay: Cell morphology by bright field microscopy; type: cell-based, human; conditions: 0.5 µM, 3 DT
Protocol: (A–D) Cells were treated with 0.2% DMSO (A MDA-
3 DT and side scatter (SSC) analysis was carried out using flow cytometry and analyzed with FlowJo X software.

pEC50 [1]: 6.75
SMILES: CCN1CCN(Cc2ccc(Nc3ncc(F)c(-c4cc(F)c5nc(C)n(C(C)C)c5c4)n3)nc2)CC1 [abemaciclib, Abemaciclib]
mRNA expression of cell cycle genes in tumors [2]: suppression of the expression of several genes | cell morphology [3]: larger and flatter compared to vehicle-treated cells

Reference: publication PMC5642494 (Oncotarget, 2017)
